Measurements from US8598122B2, “Antagonistic peptides for frizzled-1 and frizzled-2” (Universiteit Maastricht, priority 2009, dated 2013).
One block for each molecule: values may come before it. Where a SMILES comes first, the peptide text is derived from it. Bridges are numbered along the chain shown (N, C = ends). Where no end group is shown, it is not given here. rhodamine = not defined here

Assays:
[1] = system: Fzd-1 and -2; experiment: UM206-Rhodamine binding to frozen sections of mouse kidney and gut and its blocking; details: 1.10^−8 M
Procedure: Specificity of the binding site was confirmed by prior incubation of the tissue sections with UM207 (1.10^−8 M) or recombinant Wnt3a (1.10^−8 M).
One-half of the hearts of the mice was embedded in paraffin and cut in 4 μm sections. The paraffin sections were rehydrated and washed in PBS. One section was stained with AZAN, allowing an accurate determination of the infarct size. To visualize the myofibroblasts in the infarct area, the sections were incubated with an antibody directed against a-smooth muscle actin (Sigma-Aldrich), followed by incubation with the peroxidase-conjugated secondary antibody (Vector laboratories). Nuclei were visualized by hematoxylin. Photos were taken with a Leica (CTR500, 63x/0.85) camera and analyzed with the Quantimet program (QWin/QGo). An examiner blinded to the groups of the animals obtained all measurements. For the experiments with Rhodamine-labeled UM206, frozen sections (4 μm) of mouse kidney and small intestine were used.

[2] = molecular target: T1, frizzled-1 (rFzd-1) (Rattus norvegicus, UniProt Q08463); experiment: Activity assay: Wnt3a-induced luciferase (superTOPflash) in HEK cells transfected with frizzled-1; assay type: cell-based; details: for Blocking of Wnt3a-induced luciferase activity, rFzd-1: peptide 1.10^−8 M
T1 construct: expressed in transfected cells; host or cells: HEK293 superTOPflash (human embryonic kidney), transient, pcDNA3.1/hygro
T1 sequence (Q08463 69-641): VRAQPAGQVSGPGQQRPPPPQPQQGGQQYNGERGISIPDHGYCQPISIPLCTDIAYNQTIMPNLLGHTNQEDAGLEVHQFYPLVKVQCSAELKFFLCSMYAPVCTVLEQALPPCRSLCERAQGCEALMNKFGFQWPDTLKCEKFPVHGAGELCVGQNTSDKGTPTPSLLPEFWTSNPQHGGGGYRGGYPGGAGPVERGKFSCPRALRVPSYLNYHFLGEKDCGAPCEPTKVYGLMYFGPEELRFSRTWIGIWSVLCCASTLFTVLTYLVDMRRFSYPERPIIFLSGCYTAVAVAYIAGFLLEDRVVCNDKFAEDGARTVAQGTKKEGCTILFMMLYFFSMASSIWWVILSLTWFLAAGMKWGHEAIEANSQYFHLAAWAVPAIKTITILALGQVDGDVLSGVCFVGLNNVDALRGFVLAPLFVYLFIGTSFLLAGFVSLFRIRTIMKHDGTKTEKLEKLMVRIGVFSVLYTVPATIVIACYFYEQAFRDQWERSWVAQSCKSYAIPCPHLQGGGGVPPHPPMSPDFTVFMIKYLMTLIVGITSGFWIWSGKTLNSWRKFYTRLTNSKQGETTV
Procedure: (§1) Human embryonic kidney (HEK) cells were used for screening. These cells have a luciferase construct stably transfected into the genome (see FIG. 2A), such that when the frizzled receptor is activated and β-catenin is increased, the luciferase is activated by transcription and light can be measured.
(§2) The peptides were tested by transfecting the frizzled-1 or the frizzled-2 receptor and addition of UM206(S-S) to the cell culture. For testing antagonistic activity, UM206 was added and the natural ligand Wnt3a was added, which is a natural stimulus for the canonical pathway.
(§3) Day 2: Transfection 12-well plates • heat Fugene6 and DNA 15 minutes at RT • 2 ml serum-free medium in tube • add 3μl fugene • add 2 μg DNA • incubate 30 minutes at RT • wash with PBS • add 50 μtransfectiemix • add 1 ml antibiotica-free medium
(§4) Day 3: Add conditioned medium or UM206
(§5) Day 4: Luciferase activity measurements • remove medium • wash with PBS • add 500 μl ⅕ lysisbuffer • shake for 60 minutes • centrifuge in tube • 20 μl lysaat and 50 μl luciferase in new tube for measurement • vortex • measure
(§6) To determine the inhibitory constant of UM206-8, HEK293-superTOPflash cells were transfected with either rFzd-1 or -2 and incubated with Wnt3a (10^−9M) in the presence of increasing concentrations of either of the peptides (FIG. 15). For UM206, a biphasic inhibition curve was observed that was best fitted with a two-binding-state model.
(§7) The cell lines were cultured in 75 cm^2 culture flasks (Corning, Schiphol, the Netherlands) in Dulbeco's modified essential medium with L-glutamine (2 mM), 10% fetal calf serum (Invitrogen, Merelbeke, Belgium), and 1% gentamycin (Sigma-Aldrich, Zwijndrecht, The Netherlands). Before starting the experiment, the cell lines were treated with plasmocin 25 μg/ml (Invivogen, Toulose, France) and tested with a mycoalert mycoplasma detection kit (Lonza, Rockland Me., USA). Cells were transiently transfected with Fugene6 (Roche, Indianapolis Ind., USA) with plasmid DNA, pcDNA3.1/hygro (Invitrogen) with frizzled-1/2/4 or Wnts 3a-5a or with pcDNA3.0 (Invitrogen) containing the β-catenin or frizzled-5 sequence. After transfection, the cells were cultured for 24 hours in conditioned medium, collected from the cultured L-cells, L-cells with Wnt3a or 5a (Invitrogen). At the same moment the antagonist was added.

[3] = molecular target: T2, frizzled-2 (rFzd-2) (Rattus norvegicus, UniProt Q08464); experiment: Activity assay: Wnt3a-induced luciferase (superTOPflash) in HEK cells transfected with frizzled-2; assay type: cell-based; details: for Blocking of Wnt3a-induced luciferase activity, rFzd-2: peptide 1.10^−8 M
T2 construct: expressed in transfected cells; host or cells: HEK293 superTOPflash (human embryonic kidney), transient, pcDNA3.1/hygro
T2 sequence (Q08464 29-570): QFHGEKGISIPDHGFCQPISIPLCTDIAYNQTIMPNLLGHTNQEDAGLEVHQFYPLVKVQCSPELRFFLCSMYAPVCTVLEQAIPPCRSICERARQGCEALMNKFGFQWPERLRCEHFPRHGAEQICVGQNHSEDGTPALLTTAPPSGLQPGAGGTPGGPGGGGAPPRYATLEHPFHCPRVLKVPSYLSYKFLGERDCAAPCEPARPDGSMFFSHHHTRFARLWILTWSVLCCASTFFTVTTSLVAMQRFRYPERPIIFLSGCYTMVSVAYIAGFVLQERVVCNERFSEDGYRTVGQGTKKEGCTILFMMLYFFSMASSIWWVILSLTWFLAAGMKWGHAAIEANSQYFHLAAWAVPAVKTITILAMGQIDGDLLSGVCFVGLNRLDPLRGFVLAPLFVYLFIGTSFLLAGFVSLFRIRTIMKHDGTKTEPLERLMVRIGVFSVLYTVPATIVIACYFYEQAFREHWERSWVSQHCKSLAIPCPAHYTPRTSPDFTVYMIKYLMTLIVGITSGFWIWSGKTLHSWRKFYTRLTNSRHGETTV
Procedure: as §1, §2, §3, §4, §5, §6, §7

[4] = system: Wnt/Fzd signal transduction cascade; experiment: Luciferase activity in HEK293-superTOPflash cells (Wnt/Fzd signal transduction cascade); assay type: cell-based, human; details: for Luciferase activity induced by the peptide by itself: without Wnt3a
Description: as §1
Three areas of high homology that contained two cysteines are underlined (UM207), (UM208) and (UM206). In FIGS. 9B through 9D, the inhibitory effect of these three peptides on Wnt3a-induced luciferase activity in HEK293-superTOPflash is shown. […] Again, the peptides by themselves had no effect on the luciferase activity.

[5] = system: frizzled receptor; experiment: Activity on the frizzled receptor (activity assay of Example 1), result in words; assay type: cell-based
Procedure: as §1, §2
Analogues of UM206 were prepared by solid phase peptide synthesis. Each amino acid residue was sequentially replaced by an alanine residue and antagonistic activity of the analogue was tested as described in the activity assay of Example 1. […] Titles indicate which amino acid residue was substituted by an alanine residue.

[6] = system: C-FIT cells (cardiac fibroblasts immortalized with telomerase); experiment: Migration (wound/scratch) assay with C-FIT cells overexpressing Fzd-1 or -2; assay type: cell-based, rat
Procedure: For this assay, we used rat cardiac fibroblasts, which were immortalized with telomerase, the C-FIT cell line. This cell line was characterized previously and resembles features of primary cardiac fibroblasts. C-FIT cells were plated, treated when they were 70% confluent and a wound was made with a pipette tip at the moment of 100% confluence.
This assay was first tested with the natural ligand Wnt3a, in combination with frizzled-1 and -2 overexpression. […] Next step was to see whether the antagonist could counteract this. (See FIG. 4.)
Day 1: • Plate cells in 12-well plates
Day 2: • Transfection (see protocol)
Day 3: • Addition of conditioned medium
Day 4: • Make a scratch. This is time point zero.
Making pictures every six hours and analyzing the scratch width.
Cells were plated on day 0, and cultured until 70% confluence before transfection or treatment. Migration assays started 48 hours after transfection and/or treatment. The time point where the scratch was made, is indicated as 0 hours. Scratch width was measured at this time point, and also after 6, 12, and 24 hours.

[7] = molecular target: T3, hFzd-4 (Homo sapiens, UniProt Q9ULV1); experiment: Luciferase activity in HEK293 superTOPflash cells overexpressing hFzd-4; assay type: cell-based; details: FIG. 3, Panel F
T3 construct: expressed in transfected cells; host or cells: HEK293 superTOPflash, transient, pcDNA3.1/hygro
T3 sequence (Q9ULV1 37-537): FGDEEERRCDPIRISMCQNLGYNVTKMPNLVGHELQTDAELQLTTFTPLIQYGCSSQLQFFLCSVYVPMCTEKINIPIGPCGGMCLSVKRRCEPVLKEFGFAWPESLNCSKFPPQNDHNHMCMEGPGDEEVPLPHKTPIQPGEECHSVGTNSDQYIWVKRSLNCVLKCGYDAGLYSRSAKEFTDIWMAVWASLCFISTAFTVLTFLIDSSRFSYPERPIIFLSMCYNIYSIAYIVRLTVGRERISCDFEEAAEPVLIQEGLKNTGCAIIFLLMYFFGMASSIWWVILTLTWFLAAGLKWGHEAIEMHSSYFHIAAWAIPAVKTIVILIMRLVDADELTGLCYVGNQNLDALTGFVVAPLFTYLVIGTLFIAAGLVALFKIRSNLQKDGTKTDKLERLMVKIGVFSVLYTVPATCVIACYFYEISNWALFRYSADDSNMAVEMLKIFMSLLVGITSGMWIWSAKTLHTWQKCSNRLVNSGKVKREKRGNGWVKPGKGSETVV
Procedure: (§8) In FIG. 3, Panel E, the efficacy of UM206 to block the Wnt3a-induced activation of luciferase activity in HEK293 superTOPflash cells transfected with different Fzds is shown.
as §7

[8] = molecular target: T4, hFzd-5 (Homo sapiens, UniProt Q13467); experiment: Luciferase activity in HEK293 superTOPflash cells overexpressing hFzd-5; assay type: cell-based; details: FIG. 3, Panel F
T4 construct: expressed in transfected cells; host or cells: HEK293 superTOPflash, transient, pcDNA3.0
T4 sequence (Q13467 27-585): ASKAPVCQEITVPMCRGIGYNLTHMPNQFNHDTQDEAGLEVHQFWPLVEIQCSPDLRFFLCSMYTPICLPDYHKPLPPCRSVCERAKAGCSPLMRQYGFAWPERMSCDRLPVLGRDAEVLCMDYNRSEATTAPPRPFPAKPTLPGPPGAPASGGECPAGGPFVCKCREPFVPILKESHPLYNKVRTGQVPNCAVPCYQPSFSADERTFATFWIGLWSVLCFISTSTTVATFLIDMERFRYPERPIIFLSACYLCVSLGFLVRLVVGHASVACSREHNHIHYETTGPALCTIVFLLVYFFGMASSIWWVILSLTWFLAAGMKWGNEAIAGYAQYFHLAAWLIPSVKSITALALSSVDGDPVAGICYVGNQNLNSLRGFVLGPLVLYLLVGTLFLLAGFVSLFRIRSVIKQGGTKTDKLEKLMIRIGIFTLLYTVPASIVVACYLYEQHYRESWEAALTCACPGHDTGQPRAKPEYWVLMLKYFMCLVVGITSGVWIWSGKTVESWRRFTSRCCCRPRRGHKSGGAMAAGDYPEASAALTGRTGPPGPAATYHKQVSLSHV
Procedure: as §8, §7

Molecule: UM206-rhodamine: UM206 with rhodamine attached to Lys^3 (Ac-CNK(rhodamine)TSEGMDGCEL-NH2; reading uncertain; also: printed as Ac-Cys-Asn-Lys-Thr-Ser-Glu-Gly-Met-Asp-Gly-Cys-Glu-Leu-NH2)
Staining of frozen sections of mouse kidney and gut ([1]; 15 minutes, two-foton microscopy): staining of tubular epithelium and panneth cells

Molecule: UM207 S-S: UM207 forced to form a cyclic structure by inducing a S-S bond between the two cysteine residues (GIKECQYQFRHRRWNCSTVD-NH2; disulfide 5-16 (inferred); not fully specified (N-terminus))
Activity on the frizzled receptor (in words) [5]: potent agonist

Molecule: CC[C@H](C)[C@H](NC(=O)CNC(=O)[C@H](Cc1c[nH]cn1)NC(=O)[C@H](CO)NC(=O)[C@H](CO)NC(=O)[C@@H](NC(=O)[C@H](CC(N)=O)NC(=O)[C@H](CS)NC(C)=O)C(C)C)C(=O)N[C@@H](CC(=O)O)C(=O)NCC(=O)N[C@@H](CS)C(=O)N[C@@H](CC(=O)O)C(=O)N[C@@H](CC(C)C)C(N)=O [CNVSSHGIDGCDL] (Ac-CNVSSHGIDGCDL-NH2; N-terminus assumed)
% of inhibition for Fzd-1 ([2]; 1.0): 45.32% | % of inhibition for Fzd-2 ([3]; 1.0): 62.41% | Activity on the frizzled receptor (in words) [5]: showed antagonistic properties too, albeit that the potency was lower than that of UM206

Molecule: Wnt3a
Effect of Wnt protein on migration of CFIT overexpressing rFzd-1 or -2 [6]: attenuated the migration | Blocking of UM206-rhodamine binding by prior incubation [1]: completely abolished the binding | Increase of the luciferase activity by natural ligand in combination with frizzled-2 ([3]; concentration-dependent): twelve-fold | Increase of luciferase activity on addition of Wnt3a ([4]; HEK293-superTOPflash, no Fzd transfection): ~450 fold

Molecule: CSCC[C@@H]1NC(=O)CNC(=O)[C@H](CCC(=O)O)NC(=O)[C@H](CO)NC(=O)[C@H]([C@@H](C)O)NC(=O)[C@H](CCCCN)NC(=O)[C@H](CC(N)=O)NC(=O)[C@@H](NC(C)=O)CSSC[C@@H](C(=O)N[C@@H](CCC(=O)O)C(=O)N[C@@H](CC(C)C)C(N)=O)NC(=O)CNC(=O)[C@H](CC(=O)O)NC1=O [UM206(S-S)] (Ac-CNKTSEGMDGCEL-NH2; disulfide 1-11)
Agonist activity, frizzled-4 [7]: not for frizzled-4 or frizzled-5 | Agonist activity, frizzled-5 [8]: not for frizzled-4 or frizzled-5 | Agonist activity, frizzled-1 ([2]; FIG. 3, Panel F): specific agonist | Agonist activity, frizzled-2 ([3]; FIG. 3, Panel F): specific agonist

B1: Wnt5a: natural ligand (Wnt protein) for frizzled-1 and frizzled-2 (protein, listed as Homo sapiens)
chain: FFLMALATFFSFAQVVIEANSWWSLGMNNPVQMSEVHIIGAQPLCSQLAGLSQGQKKLCHLYQDHMQYIGEGAKTGIKECQYQFRHRRWNCSTVDNTSVFGRVMQIGSRETAFTYAVSAAGVVNAMSRACREGELSTCGCSRAARPKDLPRDWLWGGCGDNIDYGYRFAKEFVDARERERIHAKGSYESARILMNLHNNEAGRRTVYNLADVACKCHGVSGSCSLKTCWLQLADFRKVGDALKEKYDSAAAMRLNSRGKLVQVNSRFNSPTTQDLVYIDPSPDYCVRNESTGSLGTQGRLCNKTSEGMDGCELMCCGRGYDQFKTVQTERCHCKFHWCCYVKCKKCTEIVDQFVCK
Effect of Wnt protein on migration of CFIT overexpressing rFzd-1 or -2 [6]: attenuated the migration

The next lines start with results.

Blocking of Wnt3a-induced luciferase activity, rFzd-1 [2]: blocked almost completely | Blocking of Wnt3a-induced luciferase activity, rFzd-2 [3]: blocked almost completely
Molecule: CC(=O)NCC(=O)N[C@@H](CO)C(=O)N[C@@H](CS)C(=O)N[C@@H](CO)C(=O)N[C@@H](CC(C)C)C(=O)N[C@@H](CCCCN)C(=O)N[C@H](C(=O)N[C@@H](CS)C(=O)N[C@@H](Cc1c[nH]c2ccccc12)C(=O)N[C@@H](CC(C)C)C(=O)N[C@@H](CCC(N)=O)C(=O)N[C@@H](CC(C)C)C(=O)N[C@@H](C)C(=O)N[C@@H](CC(=O)O)C(N)=O)[C@@H](C)O [UM208, GSCSLKTCWLQLAD] (Ac-GSCSLKTCWLQLAD-NH2)
Luciferase activity induced by the peptide by itself [4]: none of the three peptides by itself could induce an increase in luciferase activity

Blocking of UM206-rhodamine binding by prior incubation [1]: completely abolished the binding | Blocking of Wnt3a-induced luciferase activity, rFzd-1 [2]: blocked almost completely | Blocking of Wnt3a-induced luciferase activity, rFzd-2 [3]: blocked almost completely | Activity on the frizzled receptor (in words) [5]: potent antagonist
Molecule: CC[C@H](C)[C@H](NC(=O)CNC(C)=O)C(=O)N[C@@H](CCCCN)C(=O)N[C@@H](CCC(=O)O)C(=O)N[C@@H](CS)C(=O)N[C@@H](CCC(N)=O)C(=O)N[C@@H](Cc1ccc(O)cc1)C(=O)N[C@@H](CCC(N)=O)C(=O)N[C@@H](Cc1ccccc1)C(=O)N[C@@H](CCCNC(=N)N)C(=O)N[C@@H](Cc1c[nH]cn1)C(=O)N[C@@H](CCCNC(=N)N)C(=O)N[C@@H](CCCNC(=N)N)C(=O)N[C@@H](Cc1c[nH]c2ccccc12)C(=O)N[C@@H](CC(N)=O)C(=O)N[C@@H](CS)C(=O)N[C@@H](CO)C(=O)N[C@H](C(=O)N[C@H](C(=O)N[C@@H](CC(=O)O)C(N)=O)C(C)C)[C@@H](C)O [UM207] (Ac-GIKECQYQFRHRRWNCSTVD-NH2)
Luciferase activity induced by the peptide by itself [4]: none of the three peptides by itself could induce an increase in luciferase activity
